The series relates to focal middle cerebral arterial occlusion (MCAO) ischemia. To be noted: for infarct volume reduced compared to control animals: after 24 h of reperfusion; for infarct volume reduced compared to control animals / MABP, pO2, pCO2, pH or rectal temperature versus control animals: 4 mg/kg i.p. x4 prior to 1 h MCAO; for neurological deficits: behavior ranking 0 (normal) to 3 (severe), 4 mg/kg i.p. at 6.5 h, 4.5 h, 2.5 h and 0.5 h prior to ischemic injury, 1 h MCAO, mean ± SEM; for neurological deficits / infarct volume: n=8; for infarct volume: 4 mg/kg; for MABP, pO2, pCO2, pH or rectal temperature versus control animals: post ischemia.

As to `CC(C)C[C@@H](NC(=O)[C@H](Cc1ccccc1)NC(=O)CNC(=O)[C@@H](C)NC(=O)[C@@H](N)Cc1ccc(O)cc1)C(=O)O` [DADLE, Tyr-D-Ala-Gly-Phe-D-Leu-enkephalin], the “infarct volume reduced compared to control animals” value stood at 12%; the neurological deficits worked out at 1.73 ± 0.20; the infarct volume is recorded as 67 ± 9 mm^2; the “MABP, pO2, pCO2, pH or rectal temperature versus control animals” value is “no significant differences”.

On to “Tyr-Ala-Phe-Asp-Val-Val-Gly-NH2 [deltorphin]”, for which the “infarct volume reduced compared to control animals” value was 42%; the neurological deficits is recorded as 0.44 ± 0.11; the infarct volume is 45 ± 10 mm^2; the “MABP, pO2, pCO2, pH or rectal temperature versus control animals” value is on record as “no significant differences”.

These data come from EP1073451B1, “D[…] TREATING ISCHEMIA” (University of Kentucky Research Foundation, priority 1998, dated 2002).
